Measured values reported in patent US20110130380A1, “Heteroaryl Kinase Inhibitors” (priority 2009, published 2011).
pIC50: −log10 of the molar value.

What follows are compounds tested against Cdk9/cyclinT1 (Homo sapiens, UniProt P50750) (assay: Cdk9/cyclinT1 IMAP Protocol (fluorescence polarization kinase assay)). Settings: Cdk9_cyclinT1_IC50, Table V; generated using one of the two Cdk9/cyclinT1 assays (IMAP or Alpha Screen), not stated which; ATP 6 uM.
Chain of Cdk9/cyclinT1 (P50750 whole entry): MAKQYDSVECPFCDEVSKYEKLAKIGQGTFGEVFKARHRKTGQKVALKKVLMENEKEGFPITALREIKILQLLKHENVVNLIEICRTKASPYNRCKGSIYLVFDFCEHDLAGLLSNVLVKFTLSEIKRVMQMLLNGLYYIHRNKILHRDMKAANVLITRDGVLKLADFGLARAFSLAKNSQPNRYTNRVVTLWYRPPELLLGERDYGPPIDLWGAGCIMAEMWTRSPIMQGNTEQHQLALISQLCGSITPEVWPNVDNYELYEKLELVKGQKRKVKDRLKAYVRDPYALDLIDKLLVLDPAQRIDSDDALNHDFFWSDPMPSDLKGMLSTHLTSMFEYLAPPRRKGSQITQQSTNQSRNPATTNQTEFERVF
Chain of Cdk9/cyclinT1 (O60563 whole entry partner): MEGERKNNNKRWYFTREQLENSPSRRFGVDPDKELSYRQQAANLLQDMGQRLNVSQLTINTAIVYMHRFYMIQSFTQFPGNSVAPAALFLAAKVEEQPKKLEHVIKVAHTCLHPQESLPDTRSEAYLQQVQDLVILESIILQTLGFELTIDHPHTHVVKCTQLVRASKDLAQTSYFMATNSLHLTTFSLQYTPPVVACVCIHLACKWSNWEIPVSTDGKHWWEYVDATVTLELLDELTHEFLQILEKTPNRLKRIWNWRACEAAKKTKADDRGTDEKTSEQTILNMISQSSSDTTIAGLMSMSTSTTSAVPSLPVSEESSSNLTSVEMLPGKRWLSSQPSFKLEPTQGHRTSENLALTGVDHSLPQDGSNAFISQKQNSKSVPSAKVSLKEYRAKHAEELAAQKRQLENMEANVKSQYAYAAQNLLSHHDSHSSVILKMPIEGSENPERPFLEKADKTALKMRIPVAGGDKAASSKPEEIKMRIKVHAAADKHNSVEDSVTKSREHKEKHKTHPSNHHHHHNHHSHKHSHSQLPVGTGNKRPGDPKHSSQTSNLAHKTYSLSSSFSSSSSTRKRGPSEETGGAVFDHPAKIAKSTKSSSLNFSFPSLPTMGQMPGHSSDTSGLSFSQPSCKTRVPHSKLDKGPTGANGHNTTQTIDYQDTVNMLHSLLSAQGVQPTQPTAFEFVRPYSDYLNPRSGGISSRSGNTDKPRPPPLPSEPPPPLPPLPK

Structure (SMILES) | pIC50
O=C(Nc1cc(-c2nc(NCC3CCOCC3)ccc2Cl)c(Cl)cn1)C1CCOCC1 [Example 97, Tetrahydro-pyran-4-carboxylic acid {3,5′-dichloro-6-[(tetrahydro-pyran-4-ylmethyl)-amino]-[2,4′]bipyridinyl-2′-yl}-amide] | 8.00
O=C(Nc1cc(-c2cccc(NCC3CC3)n2)c(Cl)cn1)[C@@H]1CCCNC1 [Example 20, (R)-Piperidine-3-carboxylic acid [5′-chloro-6-(cyclopropylmethyl-amino)-[2,4′]bipyridinyl-2′-yl]-amide] | 7.36
O=C(Nc1cc(-c2cccc(NCC3CCOCC3)n2)c(Cl)cn1)[C@H]1CCCN1 [Example 57, (R)-Pyrrolidine-2-carboxylic acid {5′-chloro-6-[(tetrahydro-pyran-4-ylmethyl)-amino]-[2,4′]bipyridinyl-2′-yl}-amide] | 7.09
O=C(Nc1cc(-c2cccc(NCC3CCOCC3)n2)c(Cl)cn1)C1(F)CCCNC1 (single isomer, unassigned) [Example 117] | 6.64
O=C(Nc1cc(-c2cccc(NC[C@H]3CCCO3)n2)c(Cl)cn1)[C@@H]1CCCNC1 [Example 25, (R)-Piperidine-3-carboxylic acid (5′-chloro-6-{[(R)-1-(tetrahydro-furan-2-yl)methyl]-amino}-[2,4′]bipyridinyl-2′-yl)-amide] | 7.33
O=C(Nc1cc(-c2cccc(NCC3CCOCC3)n2)c(Cl)cn1)[C@H]1CCCN(S(=O)(=O)C2CC2)C1 [Example 93, (S)-1-Cyclopropanesulfonyl-piperidine-3-carboxylic acid {5′-chloro-6-[(tetrahydro-pyran-4-ylmethyl)-amino]-[2,4′]bipyridinyl-2′-yl}-amide] | > 8.10
[2H]C([2H])(Nc1cccc(-c2cc(NC(=O)[C@H]3CNCCO3)ncc2Cl)n1)C1CCOCC1 [Example 180, (R)-Morpholine-2-carboxylic acid {5′-chloro-6-[(tetrahydro-pyran-4-yl(dideuteromethyl))-amino]-[2,4′]bipyridinyl-2′-yl}-amide] | 7.70
O=C(Nc1cc(-c2ccc(Cl)c(NCC3CCOCC3)n2)c(Cl)cn1)[C@@H]1CCCNC1 [Example 74, (R)-Piperidine-3-carboxylic acid {5,5′-dichloro-6-[(tetrahydro-pyran-4-ylmethyl)-amino]-[2,4′]bipyridinyl-2′-yl}-amide] | > 8.10
N[C@@H]1CCC[C@H](C(=O)Nc2cc(-c3cccc(NCC4CCOCC4)n3)c(Cl)cn2)C1 (racemic) [Example 59, (1S,3R)-/(1R,3S)-3-Amino-cyclohexanecarboxylic acid {5′-chloro-6-[(tetrahydro-pyran-4-ylmethyl)-amino]-[2,4′]bipyridinyl-2′-yl}-amide] | 8.05
CC(C)S(=O)(=O)N1CCC[C@H](C(=O)Nc2cc(-c3nc(NCC4CCOCC4)ccc3Cl)c(Cl)cn2)C1 [Example 112, (S)-1-(Propane-2-sulfonyl)-piperidine-3-carboxylic acid {3,5′-dichloro-6-[(tetrahydro-pyran-4-ylmethyl)-amino]-[2,4′]bipyridinyl-2′-yl}-amide] | > 8.10

Now from value to compound:

pIC50 | Structure (SMILES)
8.70 | COCCOC[C@@H]1C[C@@H](C(=O)Nc2cc(-c3cccc(NCC4(C)CCOCC4)n3)c(Cl)cn2)CN1 [Example 258, (3R,5S)-5-(2-Methoxy-ethoxymethyl)-pyrrolidine-3-carboxylic acid {5′-chloro-6-[(4-methyl-tetrahydro-pyran-4-ylmethyl)-amino]-[2,4′]bipyridinyl-2′-yl}-amide]
> 8.10 | CC(=O)N1CCC[C@H](C(=O)Nc2cc(-c3cccc(NCC4CCOCC4)n3)c(Cl)cn2)C1 [Example 89, (S)-1-Acetyl-piperidine-3-carboxylic acid {5′-chloro-6-[(tetrahydro-pyran-4-ylmethyl)-amino]-[2,4′]bipyridinyl-2′-yl}-amide]
> 8.10 | CO[C@H]1CNC[C@@H]1C(=O)Nc1cc(-c2cccc(NCC3CCOC(C)(C)C3)n2)c(Cl)cn1 (stereo partly drawn) [Example 151, (3S,4R)-4-Methoxy-pyrrolidine-3-carboxylic acid {5′-chloro-6-[(2,2-dimethyl-tetrahydro-pyran-4-ylmethyl)-amino]-[2,4′]bipyridinyl-2′-yl}-amide]
9.00 | CO[C@H]1CNC[C@@H]1C(=O)Nc1cc(-c2cccc(NCC3C[C@@H](C)O[C@@H](C)C3)n2)c(Cl)cn1 (stereo partly drawn) [Example 171, (3S,4R)-4-Methoxy-pyrrolidine-3-carboxylic acid {5′-chloro-6-[((2R,6S)-2,6-dimethyl-tetrahydro-pyran-4-ylmethyl)-amino]-[2,4′]bipyridinyl-2′-yl}-amide]
9.00 | CC1(C)CC(CNc2nc(-c3cc(NC(=O)[C@@H]4CCCNC4)ncc3Cl)ccc2F)CCO1 (stereo partly drawn) [Example 198, (R)-Piperidine-3-carboxylic acid {5′-chloro-6-[(2,2-dimethyl-tetrahydro-pyran-4-ylmethyl)-amino]-5-fluoro-[2,4′]bipyridinyl-2′-yl}-amide]
> 8.10 | O=C(Nc1cc(-c2nc(NCC3CCOCC3)ccc2Cl)c(F)cn1)[C@@H]1CCCNC1 [Example 123, (R)-Piperidine-3-carboxylic acid {3-chloro-5′-fluoro-6-[(tetrahydro-pyran-4-ylmethyl)-amino]-[2,4′]bipyridinyl-2′-yl}-amide]
> 8.10 | O=C(Nc1cc(-c2cccc(NCc3cccnc3)n2)c(Cl)cn1)[C@@H]1CCCNC1 [Example 40, (R)-Piperidine-3-carboxylic acid {5′-chloro-6-[(pyridin-3-ylmethyl)-amino]-[2,4′]bipyridinyl-2′-yl}-amide]
> 8.10 | O=C(Nc1cc(-c2cccc(NCC3CCOCC3)n2)c(Cl)cn1)C1CCCC1 [Example 65, Cyclopentanecarboxylic acid {5′-chloro-6-[(tetrahydro-pyran-4-ylmethyl)-amino]-[2,4′]bipyridinyl-2′-yl}-amide]
9.00 | CCC1(CNc2nc(-c3cc(NC(=O)[C@@H]4CCCNC4)ncc3Cl)ccc2F)CCOCC1 [Example 209, (R)-Piperidine-3-carboxylic acid {5′-chloro-6-[(4-ethyl-tetrahydro-pyran-4-ylmethyl)-amino]-5-fluoro-[2,4′]bipyridinyl-2′-yl}-amide]
9.00 | CC1(C)COC(CNc2cccc(-c3cc(NC(=O)[C@@H]4CCCNC4)ncc3Cl)n2)CO1 (stereo partly drawn) [Example 218, (R)-Piperidine-3-carboxylic acid {5′-chloro-6-[(5,5-dimethyl-[1,4]dioxan-2-ylmethyl)-amino]-[2,4′]bipyridinyl-2′-yl}-amide]

Same assay, conditions: Cdk9_cyclinT1_IC50, generated using one of the two Cdk9/cyclinT1 assays (IMAP or Alpha Screen), not specified per value; ATP 6 uM

pIC50 | Structure (SMILES)
6.27 | O=C(Nc1cc(-c2cncc(F)c2)c(Cl)cn1)[C@@H]1CCCNC1 [Example 308, (R)-Piperidine-3-carboxylic acid (5′-chloro-5-fluoro-[3,4′]bipyridinyl-2′-yl)-amide]
7.09 | CC(C)(C)OC(=O)N1CCC[C@@H](C(=O)Nc2cc(-c3cncc(NCC4CCOCC4)c3)c(Cl)cn2)C1 [Example 304, (R)-3-{5′-Chloro-5-[(tetrahydro-pyran-4-ylmethyl)-amino]-[3,4′]bipyridinyl-2′-ylcarbamoyl}-piperidine-1-carboxylic acid tert-butyl ester]
8.22 | O=C(Nc1cc(-c2cc(NCC3CCOCC3)cnc2Cl)c(Cl)cn1)C1CNCCOC1 (centres unmarked) [Example 316, [l,4]Oxazepane-6-carboxylic acid {2,5′-dichloro-5-[(tetrahydro-pyran-4-ylmethyl)-amino]-[3,4′]bipyridinyl-2′-yl}-amide]
